Results taken from patent US8324272B2 (XenoPort, Inc., priority 2006, dated 2012).
“And” between values parts separate entries of the source, which are not always exact repeats. Equal values may be shown once. Each block holds one compound with its values, some of them ahead of it.

Experiments:
[1] = Hygroscopicity of crystalline hydrochloride (9) crystallized from various solvents; assay type: physicochemical
Procedure: Crystallization of (1R,2R)-1-methyl-2-(2-methylpropanoyloxy)propyl (2S)-2-amino-3-(3,4-dihydroxyphenyl)propanoate hydrochloride (9) was crystallized using the solvents listed in Table 1 on an 80 mg scale.

[2] = oral administration; cited from earlier work

melting point: 181.2 to 186 °C
SMILES: CC(C)C(=O)O[C@H](C)[C@@H](C)OC(=O)[C@@H](N)Cc1ccc(O)c(O)c1.CS(=O)(=O)O

Hygroscopicity ([1]; crystallized from acetonitrile): None
Hygroscopicity ([1]; crystallized from isopropanol-ethyl acetate): None
Hygroscopicity ([1]; crystallized from isopropanol-methyl tert-butyl ether): None
Hygroscopicity ([1]; crystallized from tetrahydrofuran-diisopropyl ether): None
Hygroscopicity ([1]; crystallized from tetrahydrofuran-hexane): None
Hygroscopicity ([1]; crystallized from tetrahydrofuran-methyl tert-butyl ether): None
Hygroscopicity ([1]; crystallized from water-acetonitrile): None
Hygroscopicity ([1]; crystallized from water-methyl tert-butyl ether): None
melting point: 164.7 to 166.2 °C and 164.9 to 166.4 °C
SMILES: CC(C)C(=O)O[C@H](C)[C@@H](C)OC(=O)[C@@H](N)Cc1ccc(O)c(O)c1.Cl [Compound 9, (1R,2R)-1-Methyl-2-(2-methylpropanoyloxy)propyl (2S)-2-Amino-3-(3,4-dihydroxyphenyl)propanoate Hydrochloride]

melting point: 94.4 °C (dec.)
SMILES: CS(=O)(=O)O.C[C@@H](OC(=O)c1ccccc1)[C@@H](C)OC(=O)[C@@H](N)Cc1ccc(O)c(O)c1 [Compound 11, (1R,2R)-1-Methyl-2-phenylcarbonyloxypropyl (2S)-2-Amino-3-(3,4-dihydroxyphenyl)propanoate Mesylate]

SMILES: CC(C)(C)C(=O)Oc1ccc(C[C@H](N)C(=O)O)cc1O [NB-355]
duration of circulating levodopa [2]: prolonged
plasma concentrations of levodopa [2]: low
